# Test results reported in patent publication US11140318B2, “Laser endoscope device” (Mie University, priority 2016, dated 2021).
# Read-outs that look alike come from different tables or passages of the source.
# Key:
# [1] = test system: cancer tissue; settings: mouse, in vivo
# Source text: (§1) The finding 3 will be described with reference to a case where a cell morphology in a living body is imaged under the multiphoton laser microscope (FV1000MPE manufactured by Olympus Corporation) while changing the focal point position and a plurality of captured images are cut in a predetermined position to create a cross-sectional image (tomographic image). A laboratory mouse was used as the living body.
# (§2) As the stain for staining the cell group, both the stain containing curcumin and the stain containing Acid Red (red #106) were used. The staining period was set at 5 minutes. The staining period is the period for which the stain is caused to be in contact with the cell group and the dye of the stain is allowed to penetrate into the cells themselves or the gaps between the cells.
# [2] = test system: healthy mucosa tissue; settings: mouse, in vivo
# Source text: as §1, §2
SMILES,depth to which the tissue is stained ([1]; 5 min),depth to which the tissue is stained ([2]; 5 min),depth to which the tissue is stained [1],depth to which the tissue is stained [2]
"COc1cc(/C=C/C(=O)CC(=O)/C=C/c2ccc(O)c(OC)c2)ccc1O [curcumin dye, curcumin]",about 40 μm,about 20 μm,–,–
"CCN(CC)c1ccc2c(-c3ccc(S(=O)(=O)[O-])cc3S(=O)(=O)[O-])c3ccc(=[N+](CC)CC)cc-3oc2c1.[Na+] [Acid Red dye, Acid Red]",–,–,about 40 μm,about 70 μm
